Measured values reported in US9676691B2, “Method for producing indanone derivatives” (SYMRISE AG, priority 2011, dated 2017).

How the values were obtained:
[1] = Examination of the crystallisation in emulsion; type: physicochemical; conditions: with respect to the entire mass of the cosmetic formulation (0.025% by weight)
Excerpt: According to the indications in the following Table 1, two cosmetic formulations were produced as emulsions [E(I) and E (II)]. The product from example 1a contained pure 2-benzylidene-3,3-dimethyl-5,6-dimethoxy-1-indanone and was used in the emulsion E(I). For the emulsion E(II), 2-benzylidene-3,3-dimethyl-5,6-dimethoxy-1-indanone from example 1a was used, but it was contaminated with benzyl-3,3-dimethyl-5,6-dimethoxy-1-indanone in such a manner that a 5% by weight contamination was present, with respect to the total mass of the contaminated product.
The emulsions were covered and left to stand at ambient temperature for 3 days. Subsequently, the emulsions were examined under a microscope. Emulsion E(I) had no crystals. In emulsion E(II), crystal seeds having a size of from 4 to 7 μm were able to be observed.

[2] = Solubility in cosmetic oils; type: physicochemical; conditions: in contrast to the target product

## COc1cc2c(cc1OC)C(C)(C)C(Cc1ccccc1)C2=O (centres unmarked) [2-benzyl-3,3-dimethyl-5,6-dimethoxy-1-indanone]
[1]
  proportion of by-product that initiates the formation of crystallisation seeds in the cosmetic formulation: 250 ppm
[2]
  solubility in cosmetic oils: cannot be readily dissolved in cosmetic oils
